Results taken from patent US12329757B2, “Methods for increasing sepiapterin plasma exposure” (PTC Therapeutics MP, Inc., priority 2018, dated 2025).
Like-named read-outs stand apart in the source and are kept apart here.

How the values were obtained:
[1] = Food effect on administration of sepiapterin: plasma concentrations of BH4 and sepiapterin in fasted and fed subjects; format: in vivo; details: sepiapterin 10 mg/kg oral
Method: Method: Subjects received 2 oral doses of sepiapterin (10 mg/kg) separated by 1 week in a fasted and fed state. Subjects were fed a standard high-fat (approximately 50 percent of total caloric content of the meal) and high-calorie (approximately 800 to 1000 calories) meal starting 30 minutes prior to receiving their second oral dose of sepiapterin on Day 8.
Sampling for PK analysis occurred predose on Days 1 and 8 (within 30 minutes before dosing) and 0.5 hr, 1 hr, 2 hr, 4 hr, 8 hr, 12 hr, and 24 hr after the doses on Days 1 and 8. The blood concentrations of sepiapterin and BH4 were analyzed by MNG Labs.

[2] = Pharmacokinetic parameters for BH4 after single dose of sepiapterin or BH4 in fasted subjects; format: in vivo
Method: Six subjects received sepiapterin in each group and three subjects received BH4 in each group where this treatment was administered. Table 5. Summary of pharmacokinetic parameters for BH4 after administration of single dose of sepiapterin or BH4 in fasted subjects.
Values shown are means of plasma concentrations of BH4 following administration at the doses shown.

[3] = fasted vs fed prior to administration

C[C@H](O)C(=O)C1=Nc2c(nc(N)[nH]c2=O)NC1 [sepiapterin, Sepiapterin]
Sepiapterin Concentration in Plasma, Mean ([1]; fasted, 0 h (predose)): 0 nM | Sepiapterin Concentration in Plasma, Median ([1]; fasted, 0 h (predose)): 0 nM | concentration at 24 h ([1]; fasted, 0 h (predose), read-out: Sepiapterin Concentration in Plasma, Maximum): 0 nM | concentration at 2 h ([1]; fasted, 0 h (predose), read-out: Sepiapterin Concentration in Plasma, Minimum): 0 nM | Sepiapterin Concentration in Plasma, Mean ([1]; fasted, 8 h): 0 nM | Sepiapterin Concentration in Plasma, Median ([1]; fasted, 8 h): 0 nM | concentration at 2 h ([1]; fasted, 8 h, read-out: Sepiapterin Concentration in Plasma, Minimum): 0 nM | Sepiapterin Concentration in Plasma, Mean ([1]; fasted, 12 h): 0 nM | Sepiapterin Concentration in Plasma, Median ([1]; fasted, 12 h): 0 nM | concentration at 2 h ([1]; fasted, 12 h, read-out: Sepiapterin Concentration in Plasma, Minimum): 0 nM | Sepiapterin Concentration in Plasma, Mean ([1]; fasted, 24 h): 0 nM | Sepiapterin Concentration in Plasma, Median ([1]; fasted, 24 h): 0 nM | concentration at 2 h ([1]; fasted, 24 h, read-out: Sepiapterin Concentration in Plasma, Minimum): 0 nM | Sepiapterin Concentration in Plasma, Mean ([1]; fed, 0 h (predose)): 0 nM | Sepiapterin Concentration in Plasma, Median ([1]; fed, 0 h (predose)): 0 nM | concentration at 24 h ([1]; fed, 0 h (predose), read-out: Sepiapterin Concentration in Plasma, Maximum): 0 nM | Sepiapterin Concentration in Plasma, Median ([1]; fed, 0.5 h): 0 nM | concentration at 2 h ([1]; fed, 0.5 h, read-out: Sepiapterin Concentration in Plasma, Minimum): 0 nM | concentration at 2 h ([1]; fed, 4 h, read-out: Sepiapterin Concentration in Plasma, Minimum): 0 nM | Sepiapterin Concentration in Plasma, Median ([1]; fed, 8 h): 0 nM | concentration at 2 h ([1]; fed, 8 h, read-out: Sepiapterin Concentration in Plasma, Minimum): 0 nM | Sepiapterin Concentration in Plasma, Mean ([1]; fed, 12 h): 0 nM | Sepiapterin Concentration in Plasma, Median ([1]; fed, 12 h): 0 nM | concentration at 24 h ([1]; fed, 12 h, read-out: Sepiapterin Concentration in Plasma, Maximum): 0 nM | concentration at 2 h ([1]; fed, 12 h, read-out: Sepiapterin Concentration in Plasma, Minimum): 0 nM | Sepiapterin Concentration in Plasma, Mean ([1]; fed, 24 h): 0 nM | Sepiapterin Concentration in Plasma, Median ([1]; fed, 24 h): 0 nM | concentration at 24 h ([1]; fed, 24 h, read-out: Sepiapterin Concentration in Plasma, Maximum): 0 nM | concentration at 2 h ([1]; fed, 24 h, read-out: Sepiapterin Concentration in Plasma, Minimum): 0 nM | concentration at 0.5 h ([1]; human, plasma, fasted, 0.5 h, read-out: Sepiapterin Concentration in Plasma, Minimum): 0 nM | concentration at 4 h ([1]; human, plasma, fasted, 4 h, read-out: Sepiapterin Concentration in Plasma, Minimum): 0 nM | concentration at 8 h ([1]; human, plasma, fasted, 8 h, read-out: Sepiapterin Concentration in Plasma, Maximum): 0 nM | concentration at 12 h ([1]; human, plasma, fasted, 12 h, read-out: Sepiapterin Concentration in Plasma, Maximum): 0 nM | concentration at 24 h ([1]; human, plasma, fasted, 24 h, read-out: Sepiapterin Concentration in Plasma, Maximum): 0 nM | concentration at 0 h ([1]; human, plasma, fed, 0 h (predose), read-out: Sepiapterin Concentration in Plasma, Minimum): 0 nM | concentration at 1 h ([1]; human, plasma, fed, 1 h, read-out: Sepiapterin Concentration in Plasma, Minimum): 0 nM | concentration at 2 h ([1]; human, plasma, fed, 2 h, read-out: Sepiapterin Concentration in Plasma, Minimum): 0 nM | Cmax of BH4 in the plasma, fasted compared to fed [1, 3]: much lower | Cmax of sepiapterin in the plasma, fasted compared to fed [1, 3]: much higher | AUC0-24 of BH4, sepiapterin compared to BH4 administration [2]: much higher | AUC0-inf of BH4, sepiapterin compared to BH4 administration [2]: much higher
